In PubChem BioAssay AID2060499 (Molecular Pharmacology Branch, DTP, NCI, 2025):

Tested on: 777334-354-R2-J4-PDC tumor spheroids with HUVEC/MSC, viability
Assay: Anticancer human tumor 777334-354-R2-J4-PDC patient-derived pancreatic adenocarcinoma cell line growth inhibition [GQUAD]
Conditions: for IC50: curve of first compound; for viability, T/C: stronger effect = lower value
In short: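 Multi-cell-type spheroids of tumor cells with HUVEC and mesenchymal stem cells, treated with drug combinations. Concentrations descend in half-log steps from near clinical Cmax, or from 10 microM where Cmax is unknown; viability read-out.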

[1] = second compound 0.0316 µM, first compound 0.0316 µM
[2] = second compound 0.0316 µM, first compound 0.1 µM
[3] = second compound 0.0316 µM, first compound 0.316 µM
[4] = second compound 0.0316 µM, first compound 1 µM
[5] = second compound 0.0316 µM, first compound 3.16 µM
[6] = second compound 0.0316 µM, first compound 10 µM
[7] = second compound 0.1 µM, first compound 0.0316 µM
[8] = second compound 0.1 µM, first compound 0.1 µM
[9] = second compound 0.1 µM, first compound 0.316 µM
[10] = second compound 0.1 µM, first compound 1 µM
[11] = second compound 0.1 µM, first compound 3.16 µM
[12] = second compound 0.1 µM, first compound 10 µM
[13] = second compound 0.316 µM, first compound 0.0316 µM
[14] = second compound 0.316 µM, first compound 0.1 µM
[15] = second compound 0.316 µM, first compound 0.316 µM
[16] = second compound 0.316 µM, first compound 1 µM
[17] = second compound 0.316 µM, first compound 3.16 µM
[18] = second compound 0.316 µM, first compound 10 µM
[19] = second compound 1 µM, first compound 0.0316 µM
[20] = second compound 1 µM, first compound 0.1 µM
[21] = second compound 1 µM, first compound 0.316 µM
[22] = second compound 1 µM, first compound 1 µM
[23] = second compound 1 µM, first compound 3.16 µM
[24] = second compound 1 µM, first compound 10 µM
[25] = second compound 3.16 µM, first compound 0.0316 µM
[26] = second compound 3.16 µM, first compound 0.1 µM
[27] = second compound 3.16 µM, first compound 0.316 µM
[28] = second compound 3.16 µM, first compound 1 µM
[29] = second compound 3.16 µM, first compound 3.16 µM
[30] = second compound 3.16 µM, first compound 10 µM
[31] = second compound 10 µM, first compound 0.0316 µM
[32] = second compound 10 µM, first compound 0.1 µM
[33] = second compound 10 µM, first compound 0.316 µM
[34] = second compound 10 µM, first compound 1 µM
[35] = second compound 10 µM, first compound 3.16 µM
[36] = second compound 10 µM, first compound 10 µM
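Also: spheroids exposed to compounds for 7 days before readout.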

Structure (SMILES): C#Cc1c(F)ccc2cc(O)cc(-c3ncc4c(N5CC6CCC(C5)N6)nc(OCC56CCCN5CC(F)C6)nc4c3F)c12 (stereo unspecified) + Cc1[nH]c2ccc(F)cc2c1-c1nc2c3cccnc3c3ncccc3c2[nH]1
- IC50 (second compound 0.0316 µM): 81.4 nM
- IC50 (second compound 0.1 µM): 47.8 nM
- IC50 (second compound 0.316 µM): < 31.6 nM
- IC50 (second compound 1 µM): < 31.6 nM
- IC50 (second compound 3.16 µM): < 31.6 nM
- IC50 (second compound 10 µM): < 31.6 nM
- viability, T/C [1]: 54.6%
- viability, T/C [2]: 52.6%
- viability, T/C [3]: 37.2%
- viability, T/C [4]: 34.6%
- viability, T/C [5]: 25.9%
- viability, T/C [6]: 20%
- viability, T/C [7]: 56.3%
- viability, T/C [8]: 37.2%
- viability, T/C [9]: 32.2%
- viability, T/C [10]: 38.1%
- viability, T/C [11]: 26.3%
- viability, T/C [12]: 20.8%
- viability, T/C [13]: 51.2%
- viability, T/C [14]: 38.6%
- viability, T/C [15]: 34.9%
- viability, T/C [16]: 39.1%
- viability, T/C [17]: 21%
- viability, T/C [18]: 24.6%
- viability, T/C [19]: 48%
- viability, T/C [20]: 33.9%
- viability, T/C [21]: 27.6%
- viability, T/C [22]: 26.1%
- viability, T/C [23]: 21.9%
- viability, T/C [24]: 18.1%
- viability, T/C [25]: 26%
- viability, T/C [26]: 10.1%
- viability, T/C [27]: 9.09%
- viability, T/C [28]: 7.85%
- viability, T/C [29]: 10.6%
- viability, T/C [30]: 8.93%
- viability, T/C [31]: 16.9%
- viability, T/C [32]: 9.99%
- viability, T/C [33]: 10.5%
- viability, T/C [34]: 10.1%
- viability, T/C [35]: 8.96%
- viability, T/C [36]: 8.05%

Structure (SMILES): C=CC(=O)N1CCN(c2nc(=O)n(-c3c(C)ccnc3C(C)C)c3nc(-c4c(O)cccc4F)c(F)cc23)C(C)C1 (stereo unspecified) + Cc1[nH]c2ccc(F)cc2c1-c1nc2c3cccnc3c3ncccc3c2[nH]1
- IC50 (second compound 0.0316 µM): > 10000 nM
- IC50 (second compound 0.1 µM): > 10000 nM
- IC50 (second compound 0.316 µM): > 10000 nM
- IC50 (second compound 1 µM): > 10000 nM
- IC50 (second compound 3.16 µM): < 31.6 nM
- IC50 (second compound 10 µM): < 31.6 nM
- viability, T/C [1]: 108%
- viability, T/C [2]: 86.6%
- viability, T/C [3]: 111%
- viability, T/C [4]: 95.7%
- viability, T/C [5]: 118%
- viability, T/C [6]: 114%
- viability, T/C [7]: 99.8%
- viability, T/C [8]: 89.5%
- viability, T/C [9]: 105%
- viability, T/C [10]: 91.3%
- viability, T/C [11]: 102%
- viability, T/C [12]: 120%
- viability, T/C [13]: 82.6%
- viability, T/C [14]: 91.8%
- viability, T/C [15]: 92%
- viability, T/C [16]: 108%
- viability, T/C [17]: 110%
- viability, T/C [18]: 97.1%
- viability, T/C [19]: 81.3%
- viability, T/C [20]: 79.8%
- viability, T/C [21]: 91.6%
- viability, T/C [22]: 91.5%
- viability, T/C [23]: 98.9%
- viability, T/C [24]: 94.3%
- viability, T/C [25]: 34.3%
- viability, T/C [26]: 44.6%
- viability, T/C [27]: 40.6%
- viability, T/C [28]: 41%
- viability, T/C [29]: 47%
- viability, T/C [30]: 40.4%
- viability, T/C [31]: 28.9%
- viability, T/C [32]: 31.5%
- viability, T/C [33]: 34.7%
- viability, T/C [34]: 22.7%
- viability, T/C [35]: 22.9%
- viability, T/C [36]: 46.4%

Structure (SMILES): CC[C@@]1(O)C(=O)OCc2c1cc1n(c2=O)Cc2cc3c(CN(C)C)c(O)ccc3nc2-1 + Cc1[nH]c2ccc(F)cc2c1-c1nc2c3cccnc3c3ncccc3c2[nH]1
- IC50 (second compound 0.0316 µM): 218 nM
- IC50 (second compound 0.1 µM): 191 nM
- IC50 (second compound 0.316 µM): 200 nM
- IC50 (second compound 1 µM): 124 nM
- IC50 (second compound 3.16 µM): < 0.999 nM
- IC50 (second compound 10 µM): < 0.999 nM
- viability, T/C (second compound 0.0316 µM, first compound 0.000999 µM): 103%
- viability, T/C (second compound 0.0316 µM, first compound 0.00316 µM): 102%
- viability, T/C (second compound 0.0316 µM, first compound 0.00999 µM): 104%
- viability, T/C [1]: 82.3%
- viability, T/C (second compound 0.0316 µM, first compound 0.0999 µM): 69.6%
- viability, T/C [3]: 41.3%
- viability, T/C (second compound 0.1 µM, first compound 0.000999 µM): 100%
- viability, T/C (second compound 0.1 µM, first compound 0.00316 µM): 97.1%
- viability, T/C (second compound 0.1 µM, first compound 0.00999 µM): 111%
- viability, T/C [7]: 96%
- viability, T/C (second compound 0.1 µM, first compound 0.0999 µM): 61%
- viability, T/C [9]: 41.5%
- viability, T/C (second compound 0.316 µM, first compound 0.000999 µM): 89.5%
- viability, T/C (second compound 0.316 µM, first compound 0.00316 µM): 95.5%
- viability, T/C (second compound 0.316 µM, first compound 0.00999 µM): 96.4%
- viability, T/C [13]: 85.5%
- viability, T/C (second compound 0.316 µM, first compound 0.0999 µM): 61.7%
- viability, T/C [15]: 42.4%
- viability, T/C (second compound 1 µM, first compound 0.000999 µM): 79.3%
- viability, T/C (second compound 1 µM, first compound 0.00316 µM): 83.6%
- viability, T/C (second compound 1 µM, first compound 0.00999 µM): 85.9%
- viability, T/C [19]: 83.6%
- viability, T/C (second compound 1 µM, first compound 0.0999 µM): 53.9%
- viability, T/C [21]: 33%
- viability, T/C (second compound 3.16 µM, first compound 0.000999 µM): 34.2%
- viability, T/C (second compound 3.16 µM, first compound 0.00316 µM): 41.7%
- viability, T/C (second compound 3.16 µM, first compound 0.00999 µM): 35.7%
- viability, T/C [25]: 28.4%
- viability, T/C (second compound 3.16 µM, first compound 0.0999 µM): 15.9%
- viability, T/C [27]: 14.6%
- viability, T/C (second compound 10 µM, first compound 0.000999 µM): 28.4%
- viability, T/C (second compound 10 µM, first compound 0.00316 µM): 38.5%
- viability, T/C (second compound 10 µM, first compound 0.00999 µM): 30.7%
- viability, T/C [31]: 20.2%
- viability, T/C (second compound 10 µM, first compound 0.0999 µM): 13.3%
- viability, T/C [33]: 11.3%
